Columns and labels:
[1] = Metabolic stability (LC/MS, parent remaining); assay type: in vitro ADME, rat; settings: 1 μM, 30 min at 37° C.
Procedure: (§1) Metabolic stability was conducted using pooled microsomes form induced (BNF/PB) male rat (Sprague-Dawley) animals and induced (BNF/PB) male dog (Beagle) animals. The test compounds were incubated for 30 min at 37° C. at concentrations of 1 μM. Subsequent LC/MS analysis measured disappearance of the parent molecule. The data are expressed as percent of parent remaining. Positive controls for highly metabolized compounds were included for comparison.
(§2) Metabolic Stability and Profiling by mass spectrometry: Metabolic stability was conducted using pooled male dog (beagle) microsomes and male rat (Sprague-Dawley) microsomes from induced (beta-Naphthoflavone/Phenobarbital, BNF/PB) animals. The test compounds were incubated for 30 min at 37° C. at concentrations of 1 and 10 μM. Subsequent analysis by mass spectrometry measured disappearance of the parent molecule. The data are expressed as percent of parent remaining. Positive controls for highly metabolized compounds were included for comparison.
(§3) Metabolic Stability: The analysis measured disappearance of the parent molecule. The data were expressed as percent of parent remaining. Positive controls for highly metabolized compounds were included for comparison.

[2] = Metabolic stability (LC/MS, parent remaining); assay type: in vitro ADME, dog; settings: 1 μM, 30 min at 37° C.
Procedure: as §1, §2, §3

[3] = test system: H4IIE cells; assay: Cell number (propidium iodide); assay type: cell-based, rat
Procedure: (§4) One test compound (Compound A) was received as dry powder and evaluated for potential cytotoxicity in a battery of in vitro assays. The compound was tested using both rat cardiomyocytes (CM) from rat neonates and a rat hepatoma (H4IIE) cell line. […] The cell supernatant or the cells themselves were harvested for biochemical analysis. General cytotoxicity was evaluated by monitoring membrane integrity, mitochondrial function, cell proliferation, oxidative stress, and apoptosis. In addition, interaction with P-glycoprotein (PgP) on H4IIE cells and solubility of the test compound were also assessed. The means of each exposure group (n=3-7) were calculated for each assay performed.
(§5) Experimental Protocol: The test compound was provided and stored at 4° C. until needed. Dosing solutions were prepared in complete culture medium. The rat hepatoma (H4IIE) cell line was used as the test system.
Cell Proliferation: Cell proliferation in each well was measured with propidium iodide (PI). This specific nucleic acid binding dye fluoresces when intercalated within the nucleic acids. The 15 nm shift enhances PI fluorescence approximately 20 times while the excitation maxima are shifted 30-40 nm. During method development experiments, it was determined that Triton-X-100 was the best solution to permeabilize the H4IIE cells thereby allowing the PI access to intracellular RNA and DNA. Fluorescence was measured using a Packard Fusion plate reader or equivalent reader at 540 nm excitation and 610 nm emission.
Cell Proliferation: After incubation, the test compound was removed and Triton X-100 solution containing propidium iodide is added. The plate was incubated and read on a fluorescent plate reader. Data was collected as relative fluorescent units (RFU). The blank was subtracted from the final well RFU. It represents the average of the first and last columns which contain no cells on that particular plate. The controls are untreated cells allowed to grow on the same plate. The compounds are represented by several separate RFU data points for each of the tested concentrations. The percent change relative to controls was calculated by dividing the average RFU by the control cell RFU and multiplying by 100.

[4] = MemTox membrane leakage (AK / α-GST); assay type: cell-based, rat; settings: rat
Procedure: as §4
(§6) Membrane Leakage (α-Glutathione S-transferase and/or Adenylate Kinase): The presence of Adenylate Kinase (AK) or α-Glutathione S-transferase (α-GST), both enzyme leakage markers, was measured in the culture medium using an activity assay for Adenylate Kinase and/or an ELISA assay for α-GST. At the end of the exposure period, the medium covering the cells in each well was removed and placed into new 96-well plates with appropriate labeling. […] Luminescence (AK) values were measured with a Packard Fusion or equivalent plate reader, and absorbance (α-GST) values were measured with a Packard SpectraCount™ or equivalent reader at 450 nm and reference absorbance at 650 nm.
(§7) Membrane Leakage (α-Glutathione S-transferase and/or Adenylate Kinase): Leakage of Adenylate Kinase or α-GST from the cell into the culture medium was determined by collecting the culture medium at the end of the exposure period. Thus, the values measured represent total enzyme leakage lost over the exposure period. The control for 100% dead or maximum enzyme release was based on cells treated with 1 mM digitonin at the time of dosing. Percent dead cells relative to digitonin treated cells was determined and then subtracted from 100% to yield the percent live cells.

[5] = test system: H4IIE cells; assay: MemTox membrane leakage (AK / α-GST); assay type: cell-based, rat
Procedure: as §4, §5, §6, §7

[6] = MTT reduction; assay type: cell-based, rat; settings: rat
Procedure: as §4
(§8) Tetrazolium Dye Reduction: 3-[4,5-dimethylthiazol-2-yl]

[7] = test system: H4IIE cells; assay: MTT reduction; assay type: cell-based, rat
Procedure: as §4, §5, §8

[8] = Intracellular ATP levels; assay type: cell-based, rat; settings: rat
Procedure: as §4
(§9) Intracellular ATP Levels: Cellular Adenosine triphosphate (ATP) was determined with an assay based on a reaction between ATP+D-luciferin+oxygen catalyzed by luciferase to yield Oxyluciferin+AMP+PPi+CO2+light. The emitted light is proportional to the amount of ATP present. […] In addition, a unique cell lysis reagent inhibits endogenous ATPases and therefore stabilizes cellular ATP by preventing its degradation to ADP. ATP is present in all-living cells and declines rapidly upon cell death. In addition, this assay in combination with the MTT assay provides an indicator of mitochondrial activity and energy status of the cell.
(§10) Plates were analyzed immediately or stored at −20° C. until needed. On the day of analysis, the plates were thawed and calibration curve prepared with ATP in the same liquid matrix as samples. ATP was quantified by adding ATP substrate solution and then reading luminescence on a Packard Fusion Luminescence or equivalent plate reader.
(§11) Intracellular ATP Levels: ATP levels in treated cells could be determined by using the regression coefficients obtained from the linear regression analysis of the calibration curve. Thus, values could be expressed as pmoles ATP/million cells. Background corrected luminescence was used to determine percent change relative to controls by dividing treated values by control values and multiplying by 100.

[9] = test system: H4IIE cells; assay: Intracellular ATP levels; assay type: cell-based, rat
Procedure: as §4, §5, §9, §10, §11

[10] = test system: H4IIE cells; assay: Predicted Ctox from Tox-Panel; assay type: cell-based, rat; settings: 24 HR, estimated sustained plasma concentration where toxicity would be expected in vivo
Procedure: Once all data for a given cluster of assays are received, the data are analyzed to obtain a detailed profile of the compound's toxicity. For example, most conveniently, the data are collated over a dose response range on a single graph. In such an embodiment, the measurement evaluated for each parameter (i.e., each indicator of cell health) at any given concentration is plotted as a percentage of a control measurement obtained in the absence of the compound. However, it should be noted that the data need not be plotted on a single graph, so long as all the parameters are analyzed collectively to yield detailed information of the effects of the concentration of the compound on the different parameters to yield an overall toxicity profile. As set forth below, this overall toxicity profile will facilitate a determination of a plasma concentration Ctox that is predicted to be toxic in vivo. Ctox represents an estimate of the sustained plasma concentration in vivo that would result in toxicity, such as hepatotoxicity or hematopoietic toxicity.
Studies such as these indicate that a preferred concentration for setting Ctox is the highest concentration at which there is no observed effect on any of the indicators being measured in the cluster analysis, especially a 24-hour cluster analysis. […] It will be apparent that 24 hour assays are more time-effective, and consequently, the 24 hour NOEL/Ctox represents a preferred data point to select as Ctox in a CATS assay. It will also be apparent that, with further time studies, it may be possible to select an equally suitable Ctox at other CATS assay time points (e.g., between 24 and 72 hours, or less than 24 hours).
In certain embodiments, the predicting comprises performing concentration response analyses of measurements from at least three separate assays that are employed in the cluster analysis. For example, in the cell health cluster, such predicting will involve monitoring the concentration response effect of the compound on a first health indicator which monitors cellular replication, a second cell health indicator which monitors mitochondrial function, and a third cell health indicator which monitors membrane integrity. Of course, it is understood that fourth, fifth, sixth or more cell health indicators also may be employed. From these concentration response analyses, the highest concentration of the chemical compound at which a measurable toxic effect of the chemical compound is not observable, i.e. NOEL, is determined and the Ctox is identified as the concentration that correlates to the NOEL. In choosing the concentrations of the compound for analysis, one of skill in the art should devise a dose response regimen which is selected to provide an indication of cell health at concentrations of at least two concentration values higher than the Ctox concentration.
The Ctox (H4IIE) value was developed using 24 hr in vitro toxicity data and was validated by retrospectively evaluating compounds across different classes of drugs in 14-day rat studies in which compounds were administered on a daily basis and pharmacokinetic data was available. […] Thus, Ctox values are only determined for the 24 hr in vitro results. The 6 hr toxicity analyses are typically not performed but are beneficial for interpretation of results when compound toxicity is high (e.g., Ctox≦20 μM).

[11] = Intracellular total glutathione (GSH); assay type: cell-based, rat; settings: rat
Procedure: as §4

[12] = Intracellular total glutathione (GSH); assay type: cell-based, rat; settings: rat, Total GSH TC50
Procedure: as §4, §5

[13] = test system: P-glycoprotein (PgP); assay: P-glycoprotein (PgP) binding: MTT with and without cyclosporin A; assay type: cell-based, rat; settings: H4IIE 24 HR; for % Control (Compound + CSA) / % Control (Compound): MTT, 50 μM; for % Control (Compound + CSA): with cyclosporin A; for % Control (Compound): without CSA
Procedure: Several antiviral drugs are substrates for P-glycoprotein transporter (PgP).
P-glycoprotein (PgP) transport proteins are expressed in the bile canalicular membrane of normal liver. However, in neoplastic cells it is not uncommon to have expression of this transporter system in the plasma membrane. […] The existence of these transporters was evaluated with the Calcein-AM assay and with known substrates of PgP.

[14] = Metabolic activation (disappearance of GSH); settings: liver microsomes from Phenobarbital/BNF induced rats
[15] = test system: rat cardiomyocytes; assay: MemTox membrane leakage (AK / α-GST); assay type: cell-based
Procedure: as §4, §6, §7

[16] = test system: rat cardiomyocytes; assay: MTT reduction; assay type: cell-based
Procedure: as §4, §8

[17] = test system: rat cardiomyocytes; assay: Intracellular ATP levels; assay type: cell-based
Procedure: as §4, §9, §10, §11

[18] = test system: rat cardiomyocytes; assay: Intracellular total glutathione (GSH); assay type: cell-based
Procedure: as §4

[19] = test system: H4IIE cells; assay: Intracellular total glutathione (GSH); assay type: cell-based, rat
Procedure: as §4, §5

[20] = test system: rat cardiomyocytes; assay: Membrane lipid peroxidation (8-isoprostane ELISA); assay type: cell-based
Procedure: (§12) One test compound (Compound A) was received as dry powder and evaluated for potential cytotoxicity in a battery of in vitro assays. The compound was tested using both rat cardiomyocytes (CM) from rat neonates and a rat hepatoma (H4IIE) cell line. […] Camptothecin and rotenone were included as positive control compounds. The cell supernatant or the cells themselves were harvested for biochemical analysis. General cytotoxicity was evaluated by monitoring membrane integrity, mitochondrial function, cell proliferation, oxidative stress, and apoptosis. In addition, interaction with P-glycoprotein (PgP) on H4IIE cells and solubility of the test compound were also assessed. The means of each exposure group (n=3-7) were calculated for each assay performed. Intra assay variation well-to-well was typically less than 10% with plate to plate variation typically less than 20%.

[21] = test system: H4IIE cells; assay: Membrane lipid peroxidation (8-isoprostane ELISA); assay type: cell-based, rat
Procedure: as §12, §5

Cc1ncc2n1-c1ccc(Cl)cc1C(c1ccccc1F)=NC2 [MIDAZOLAM]
% Parent Remaining Rat Microsomes [1]: 0.0%
% Parent Remaining Dog Microsomes [2]: 0.0%

CC(C)(C)NC(=O)[C@@H]1CN(Cc2cccnc2)CCN1C[C@@H](O)C[C@@H](Cc1ccccc1)C(=O)N[C@H]1c2ccccc2C[C@H]1O [indinavir]
Cell Number TC50 ([3]; rat, 24 h): 300 µM
CC50 at 24 h [4]: > 300 µM
MemTox TC50 ([5]; rat, 24 h): 300 µM
CC50 at 24 h [6]: > 300 µM
MTT TC50 ([7]; rat, 24 h): 300 µM
CC50 at 24 h [8]: > 300 µM
ATP TC50 ([9]; rat, 24 h): 300 µM
Predicted Ctox [10]: 90 µM
CC50 at 24 h [11]: 71 µM
CC50 at 24 h [12]: 249 µM
% Control (Compound + CSA) [13]: 91.3%
% Control (Compound) [13]: 106.0%
% Difference ([13]; 1-20% low, 20-50% moderate, 50-100% high PgP interaction): 13.9%

CC(C)C(=O)Nc1ccc([N+](=O)[O-])c(C(F)(F)F)c1 [flutamide]
reduction in GSH (metabolic activation) [14]: most pronounced effects

Cc1cn([C@H]2C[C@H](N=[N+]=[N-])[C@@H](CO)O2)c(=O)[nH]c1=O [AZT]
CC50 [3]: > 300 µM
CC50 [15]: > 300 µM
CC50 [5]: > 300 µM
CC50 [16]: > 300 µM
CC50 [7]: > 300 µM
CC50 [17]: > 300 µM
CC50 [9]: > 300 µM
CC50 [18]: > 300 µM
CC50 [19]: > 300 µM
Membrane Lipid Peroxidation [20]: 0
Membrane Lipid Peroxidation [21]: 0
% Control (Compound + CSA) [13]: 99.0%
% Control (Compound) [13]: 116.6%

— patent publication US7615361B2, “Toxicity screening methods” (Ceetox, Inc., priority 2006, dated 2009)
